Laboratory results as given in patent US20150141435A1, “2-PYRIDONE ANTIMICROBIAL COMPOSITIONS” (Emergent BioSolutions, priority 2010, published 2015).
Values after ≈ are worked out from the molar mass of the structure shown. Where two headings read alike, the source gives them in different places.

Key:
[1] = system: Staphylococcus aureus (16 strains); test: MIC range, broader panel incl. clinical isolates (Table 3); format: cell-based
K. pneumoniae ATCC 33495 = test: MIC, CLSI broth microdilution (Table 2); format: cell-based; details: Klebsiella pneumoniae, ATCC33495; Gram negative; MHB, 37° C., 16-20 hours; read-out: MIC K. pneumoniae ATCC 33495
E. coli ATCC 25922 = test: MIC, CLSI broth microdilution (Table 2); format: cell-based; details: Escherichia coli, ATCC25922; Gram negative; MHB, 37° C., 16-20 hours; read-out: MIC E. coli ATCC 25922
[2] = system: Francisella tularensis Schu S4; test: microbe, parasite or virus in culture; format: cell-based; details: SCHUS4
[3] = system: S. maltophilia ATCC 17677; test: MIC, CLSI broth microdilution (Table 2); format: cell-based; details: Stenotrophomonas maltophilia, ATCC17677; Gram negative; MHB, 37° C., 16-20 hours; read-out: MIC S. maltophilia ATCC 17677
[4] = system: Burkholderia mallei ATCC 23344; test: microbe, parasite or virus in culture; format: cell-based; details: ATCC23344
H. influenzae ATCC 49247 = test: MIC, CLSI broth microdilution (Table 2); format: cell-based; details: Haemophilus influenzae, ATCC49247; Gram negative; MHB, 37° C., 16-20 hours; read-out: MIC H. influenzae ATCC 49247
Yersinia pestis C092 = test: microbe, parasite or virus in culture; format: cell-based
[5] = system: S. aureus BAA-1720 (MRSA, FQ-R); test: MIC, CLSI broth microdilution (Table 1); format: cell-based; details: Staphylococcus aureus; Gram positive; MHB, 37° C., 16-20 hours; read-out: MIC S. aureus BAA-1720 (MRSA, FQ-R)
[6] = system: Bacillus anthracis Ames strain; test: microbe, parasite or virus in culture; format: cell-based
[7] = system: Burkholderia pseudomallei ATCC 23343; test: microbe, parasite or virus in culture; format: cell-based; details: ATCC23343
[8] = system: Burkholderia cepacia (5 strains); test: MIC range, broader panel incl. clinical isolates (Table 4); format: cell-based
A. baumannii ATCC 19606 = test: MIC, CLSI broth microdilution (Table 2); format: cell-based; details: Acinetobacter baumannii, ATCC19606; Gram negative; MHB, 37° C., 16-20 hours; read-out: MIC A. baumannii B. ATCC 19606
E. faecium ATCC 19434 = test: MIC, CLSI broth microdilution (Table 1); format: cell-based; details: Enterococcus faecium, ATCC19434; Gram positive; MHB, 37° C., 16-20 hours; read-out: MIC E. faecium ATCC 19434
S. pneumonia ATCC 49619 = test: MIC, CLSI broth microdilution (Table 1); format: cell-based; details: Streptococcus pneumoniae, ATCC49619; Gram positive; MHB, 37° C., 16-20 hours; read-out: MIC S. pneumonia ATCC 49619
E. faecalis ATCC 29212 = test: MIC, CLSI broth microdilution (Table 1); format: cell-based; details: Enterococcus faecalis, ATCC29212; Gram positive; MHB, 37° C., 16-20 hours; read-out: MIC E. faecalis ATCC 29212
[9] = system: Enterococcus faecalis (5 strains); test: MIC range, broader panel incl. clinical isolates (Table 3); format: cell-based
[10] = system: S. aureus ATCC 43300 (MRSA, FQ-S); test: MIC, CLSI broth microdilution (Table 1); format: cell-based; details: Staphylococcus aureus; Gram positive; MHB, 37° C., 16-20 hours; read-out: MIC S. aureus ATCC 43300 (MRSA, FQ-S)
[11] = system: Streptococcus pneumonia (5 strains); test: MIC range, broader panel incl. clinical isolates (Table 3); format: cell-based; details: Streptococcus pneumoniae
[12] = system: Pseudomonas aeruginosa (12 strains); test: MIC range, broader panel incl. clinical isolates (Table 4); format: cell-based
[13] = system: Streptococcus pyogenes (4 strains); test: MIC range, broader panel incl. clinical isolates (Table 3); format: cell-based
[14] = system: Acinetobacter baumannii (12 strains); test: MIC range, broader panel incl. clinical isolates (Table 4); format: cell-based; details: Median of 12 strains
[15] = system: Haemophilus influenza (5 strains); test: as above; format: cell-based, Haemophilus influenzae
[16] = system: Escherichia coli (6 strains); test: as above; format: cell-based
S. aureus ATCC 25923 = test: MIC, CLSI broth microdilution (Table 1); format: cell-based; details: Staphylococcus aureus, ATCC25923; Gram positive; MHB, 37° C., 16-20 hours; read-out: MIC S. aureus ATCC 25923
[17] = system: Klebsiella pneumonia (4 strains); test: MIC range, broader panel incl. clinical isolates (Table 4); format: cell-based; details: Klebsiella pneumoniae
[18] = system: Group C Streptococcus (4 strains); test: MIC range, broader panel incl. clinical isolates (Table 3); format: cell-based
[19] = system: Enterococcus faecium (3 strains); test: as above; format: cell-based

Cc1c(C2=CCNCC2)ccn2c(=O)c(C(=O)O)cc(C3CC3)c12 [Example 42, 1-cyclopropyl-9-methyl-4-oxo-8-(1,2,3,6-tetrahydropyridin-4-yl)-4H-quinolizine-3-carboxylic acid]
MIC Range High, Staphylococcus aureus (16 strains) ([1]; High of 16 strains): 32 µg/mL (≈ 98.6 µM)
MIC Range Low, Staphylococcus aureus (16 strains) ([1]; Low of 16 strains): 0.5 µg/mL (≈ 1.54 µM)
MIC Range Median, Staphylococcus aureus (16 strains) ([1]; Median of 16 strains): 16.25 µg/mL (≈ 50.1 µM)
MIC (K. pneumoniae ATCC 33495): 0.125 µg/mL (≈ 0.385 µM)
MIC (E. coli ATCC 25922): 0.064 µg/mL (≈ 0.197 µM)
MIC [2]: 0.25 to 0.5 µg/mL (≈ 0.771 to 1.54 µM)
MIC [3]: 1 µg/mL (≈ 3.08 µM)
MIC [4]: 2 µg/mL (≈ 6.17 µM)
MIC (H. influenzae ATCC 49247): 0.064 µg/mL (≈ 0.197 µM)
MIC (Yersinia pestis C092): 0.5 to 1 µg/mL (≈ 1.54 to 3.08 µM)
MIC [5]: > 8 µg/mL
MIC [6]: 0.25 µg/mL (≈ 0.771 µM)
MIC [7]: 4 µg/mL (≈ 12.3 µM)
MIC Range High, Burkholderia cepacia (5 strains) ([8]; High of 5 strains): 2 µg/mL (≈ 6.17 µM)
MIC Range Low, Burkholderia cepacia (5 strains) ([8]; Low of 5 strains): 2 µg/mL (≈ 6.17 µM)
MIC Range Median, Burkholderia cepacia (5 strains) ([8]; Median of 5 strains): 2 µg/mL (≈ 6.17 µM)
MIC (A. baumannii ATCC 19606): 2 µg/mL (≈ 6.17 µM)
MIC (E. faecium ATCC 19434): > 8 µg/mL
MIC (S. pneumonia ATCC 49619): 2 µg/mL (≈ 6.17 µM)

C[C@H]1COc2c(N3CCN(C)CC3)c(F)cc3c(=O)c(C(=O)O)cn1c23 [Levofloxacin]
MIC ([1]; Staphylococcus aureus, High of 16 strains, read-out: MIC Range High, Staphylococcus aureus (16 strains)): ≥ 16 µg/mL
MIC ([1]; Staphylococcus aureus, Low of 16 strains, read-out: MIC Range Low, Staphylococcus aureus (16 strains)): 0.12 µg/mL (≈ 0.332 µM)
MIC50 ([1]; Staphylococcus aureus, Median of 16 strains): 0.25 µg/mL (≈ 0.692 µM)
MIC (K. pneumoniae ATCC 33495): 0.032 µg/mL (≈ 0.0886 µM)
MIC (E. faecalis ATCC 29212): 1 µg/mL (≈ 2.77 µM)
MIC ([9]; High of 5 strains, read-out: MIC Range High, Enterococcus faecalis (5 strains)): ≥ 16 µg/mL
MIC ([9]; Low of 5 strains, read-out: MIC Range Low, Enterococcus faecalis (5 strains)): 1 µg/mL (≈ 2.77 µM)
MIC50 ([9]; Median of 5 strains): 2 µg/mL (≈ 5.53 µM)
MIC [3]: 0.25 µg/mL (≈ 0.692 µM)
MIC [10]: 0.125 µg/mL (≈ 0.346 µM)
MIC (H. influenzae ATCC 49247): 0.016 µg/mL (≈ 0.0443 µM)
MIC [5]: > 8 µg/mL
MIC ([11]; High of 5 strains, read-out: MIC Range High, Streptococcus pneumonia (5 strains)): 2 µg/mL (≈ 5.53 µM)
MIC ([11]; Low of 5 strains, read-out: MIC Range Low, Streptococcus pneumonia (5 strains)): 0.5 µg/mL (≈ 1.38 µM)
MIC50 ([11]; Median of 5 strains): 1 µg/mL (≈ 2.77 µM)
MIC ([12]; High of 12 strains, read-out: MIC Range High, Pseudomonas aeruginosa (12 strains)): ≥ 16 µg/mL
MIC ([12]; Low of 12 strains, read-out: MIC Range Low, Pseudomonas aeruginosa (12 strains)): 1 µg/mL (≈ 2.77 µM)
MIC50 ([12]; Median of 12 strains): ≥ 16 µg/mL
MIC ([13]; High of 4 strains, read-out: MIC Range High, Streptococcus pyogenes (4 strains)): 2 µg/mL (≈ 5.53 µM)
MIC ([13]; Low of 4 strains, read-out: MIC Range Low, Streptococcus pyogenes (4 strains)): 0.5 µg/mL (≈ 1.38 µM)
MIC50 ([13]; Median of 4 strains): 0.75 µg/mL (≈ 2.08 µM)
MIC50 [14]: ≥ 16 µg/mL
MIC ([8]; Burkholderia cepacia, High of 5 strains, read-out: MIC Range High, Burkholderia cepacia (5 strains)): 2 µg/mL (≈ 5.53 µM)
MIC ([8]; Burkholderia cepacia, Low of 5 strains, read-out: MIC Range Low, Burkholderia cepacia (5 strains)): 1 µg/mL (≈ 2.77 µM)
MIC50 ([8]; Burkholderia cepacia, Median of 5 strains): 2 µg/mL (≈ 5.53 µM)
MIC ([15]; High of 5 strains, read-out: MIC Range High, Haemophilus influenza (5 strains)): 0.015 µg/mL (≈ 0.0415 µM)
MIC ([15]; Low of 5 strains, read-out: MIC Range Low, Haemophilus influenza (5 strains)): 0.008 µg/mL (≈ 0.0221 µM)
MIC50 ([15]; Median of 5 strains): 0.015 µg/mL (≈ 0.0415 µM)
MIC ([16]; High of 6 strains, read-out: MIC Range High, Escherichia coli (6 strains)): ≥ 16 µg/mL
MIC ([16]; Low of 6 strains, read-out: MIC Range Low, Escherichia coli (6 strains)): 0.015 µg/mL (≈ 0.0415 µM)
MIC50 ([16]; Median of 6 strains): ≥ 16 µg/mL
MIC (S. aureus ATCC 25923): 0.25 µg/mL (≈ 0.692 µM)
MIC (A. baumannii ATCC 19606): 0.25 µg/mL (≈ 0.692 µM)
MIC (E. faecium ATCC 19434): 8 µg/mL (≈ 22.1 µM)
MIC (S. pneumonia ATCC 49619): 0.5 µg/mL (≈ 1.38 µM)
MIC ([17]; High of 4 strains, read-out: MIC Range High, Klebsiella pneumonia (4 strains)): 2 µg/mL (≈ 5.53 µM)
MIC ([17]; Low of 4 strains, read-out: MIC Range Low, Klebsiella pneumonia (4 strains)): 0.03 µg/mL (≈ 0.083 µM)
MIC50 ([17]; Median of 4 strains): 2 µg/mL (≈ 5.53 µM)
MIC ([18]; High of 4 strains, read-out: MIC Range High, Group C Streptococcus (4 strains)): 1 µg/mL (≈ 2.77 µM)
MIC ([18]; Low of 4 strains, read-out: MIC Range Low, Group C Streptococcus (4 strains)): 0.5 µg/mL (≈ 1.38 µM)
MIC50 ([18]; Median of 4 strains): 0.75 µg/mL (≈ 2.08 µM)
MIC ([19]; High of 3 strains, read-out: MIC Range High, Enterococcus faecium (3 strains)): ≥ 16 µg/mL
MIC ([19]; Low of 3 strains, read-out: MIC Range Low, Enterococcus faecium (3 strains)): 2 µg/mL (≈ 5.53 µM)
MIC50 ([19]; Median of 3 strains): ≥ 16 µg/mL
